Article PMC11866408, “LOPAC library screening identifies suramin as a TRIM21 binder with a unique binding mode revealed by crystal structure” (Acta Crystallographica Section F: Structural Biology …, 2025)

What was measured:
[1] = biological target: T1, TRIM21 PRYSPRY domain (mouse) (Mus musculus, UniProt Q62191); assay: co-crystal structure at […] Å; ITC; format: binding
T1 construct: PRYSPRY domain, residues Val291–Met470, N-terminal His6-tag
T1 sequence (Q62191 291-470): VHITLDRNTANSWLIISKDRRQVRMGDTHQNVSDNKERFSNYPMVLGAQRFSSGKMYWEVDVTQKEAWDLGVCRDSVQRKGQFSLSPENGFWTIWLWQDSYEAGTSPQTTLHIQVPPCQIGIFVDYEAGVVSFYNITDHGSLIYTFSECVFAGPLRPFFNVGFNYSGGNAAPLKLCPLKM

[2] = biological target: T2, TRIM21 PRYSPRY domain (human) (Homo sapiens, UniProt P19474); assay: ITC; DSF shift […] K; format: binding
T2 construct: PRYSPRY domain, residues Val287–Leu465, His6-SUMO tag cleaved
T2 sequence (P19474 287-465): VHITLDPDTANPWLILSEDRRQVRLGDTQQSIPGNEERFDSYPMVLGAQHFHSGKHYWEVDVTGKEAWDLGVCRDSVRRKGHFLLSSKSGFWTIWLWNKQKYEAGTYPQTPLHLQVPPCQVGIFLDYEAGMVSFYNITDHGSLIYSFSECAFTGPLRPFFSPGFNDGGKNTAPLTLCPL

Kd [1]: ~9 µM | Kd [2]: ~8 µM
Compound: Cc1ccc(C(=O)Nc2ccc(S(=O)(=O)O)c3cc(S(=O)(=O)O)cc(S(=O)(=O)O)c23)cc1NC(=O)c1cccc(NC(=O)Nc2cccc(C(=O)Nc3cc(C(=O)Nc4ccc(S(=O)(=O)O)c5cc(S(=O)(=O)O)cc(S(=O)(=O)O)c45)ccc3C)c2)c1 [suramin]
